The text below walks through data of ChEMBL document CHEMBL1201861, “Genomics of Drug Sensitity in Cancer screening data, Wellcome Trust Sanger Institute”.

Molecules are shown by their SMILES. pIC50: −log10 of the molar value.

What all share (assay type): functional, cell-based
One assay deals with CAL-148. Description: cells. As to conditions: Homo sapiens.
A further assay deals with IST-SL2. Description: cells. Conditions: Homo sapiens.
For the next assay, the system named is TE-15. Description: cells. Conditions: Homo sapiens.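 Note: cell viability readout of growth inhibition in TE-15 cells.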
In another assay the test system is NCI-H1522. Nature of the assay: cells. Conditions: Homo sapiens.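 Note: growth inhibition of NCI-H1522 cells, read out with a cell viability assay.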
Another assay has as its system MRK-nu-1. Description: cells. As to conditions: Homo sapiens.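 Note: cell viability assay measuring growth suppression of human MRK-nu-1 cells.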
A further assay has as its system EB2. Description: cells. As to conditions: Homo sapiens.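 Note: growth inhibition of EB2 cells, read out with a cell viability assay.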
For a further assay, the system named is MONO-MAC-6. Nature of the assay: cells. As to conditions: Homo sapiens.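 Note: cell viability assay measuring growth inhibition of human MONO-MAC-6 cells.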
In a further assay the test system is JIYOYE. Description: cells. As to conditions: Homo sapiens.
A further assay has as its system MHH-CALL-2. Nature of the assay: cells. Conditions: Homo sapiens.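 Note: growth inhibition of the cell line, read out in a cell viability assay.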
The next assay has as its system MC-CAR. Nature of the assay: cells. As to conditions: Homo sapiens.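 Note: growth inhibition of the human MC-CAR cell line, read out by a cell viability assay.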
Another assay concerns SR. Description: cells. Conditions: Homo sapiens.
The test system of another assay is Raji. Description: cells. Conditions: Homo sapiens.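 Note: cell viability assay measuring inhibition of Raji cell growth.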
The test system of another assay is NCI-H1417. Nature of the assay: cells. Conditions: Homo sapiens.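 Note: human NCI-H1417 cells, growth inhibition determined with a cell viability readout.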
For the next assay, the system named is NCCIT. Nature of the assay: SANGER: Inhibition of human NCCIT cell growth in a cell viability assay.
The next assay has as its system NCI-H719. Nature of the assay: cells. Conditions: Homo sapiens.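 Note: growth inhibition of the cultured cell line, read out with a viability assay.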
The next assay has as its system NCI-H187. Description: cells. Conditions: Homo sapiens.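 Note: growth inhibition of NCI-H187 cells, read out as cell viability.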
The subject of the next assay is NCI-H2081. Description: cells. Conditions: Homo sapiens.
Another assay relates to YT. Description: cells. Conditions: Homo sapiens.
A further assay has as its system MHH-ES-1. Nature of the assay: cells. As to conditions: Homo sapiens.
A further assay deals with AGS. Nature of the assay: cells. Conditions: Homo sapiens.
The next assay relates to G-401. Nature of the assay: cells. As to conditions: Homo sapiens.
The next assay deals with SCC-25. Nature of the assay: cells. Conditions: Homo sapiens.
For a further assay, the system named is SW1573. Description: cells. Conditions: Homo sapiens.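 Note: growth inhibition of SW1573 cells, read out with a cell viability assay.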
The test system of a further assay is SW1463. Description: cells. Conditions: Homo sapiens.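 Note: growth inhibition of SW1463 cells, determined with a cell viability assay.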
For another assay, the system named is JEG-3. Nature of the assay: cells. As to conditions: Homo sapiens.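 Note: growth inhibition of human JEG-3 cells, read out with a cell viability assay.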
Another assay relates to MKN-28. Description: cells. Conditions: Homo sapiens.
In another assay the test system is T-24. Description: cells. As to conditions: Homo sapiens.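 Note: growth inhibition of T-24 cells, read out with a cell viability assay.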
The subject of another assay is FTC-133. Description: cells. As to conditions: Homo sapiens.
The next assay concerns Detroit 562. Nature of the assay: cells. Conditions: Homo sapiens.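 Note: growth inhibition of human Detroit 562 cells, read out by a cell viability assay.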
The subject of a further assay is VM-CUB-1. Description: cells. Conditions: Homo sapiens.
The subject of another assay is IGROV-1. Nature of the assay: cells. As to conditions: Homo sapiens.
Another assay relates to A673. Description: cells. As to conditions: Homo sapiens.
A further assay concerns NCI-H1793. Description: cells. Conditions: Homo sapiens.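 Note: cell growth inhibition, read out by a cell viability assay.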
The test system of a further assay is MFE-280. Description: cells. Conditions: Homo sapiens.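 Note: growth inhibition of MFE-280 cells, determined with a cell viability readout.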
The test system of another assay is KP-4. Description: cells. Conditions: Homo sapiens.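 Note: human KP-4 cells, with growth inhibition read out through a cell viability assay.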
In another assay the test system is SW837. Nature of the assay: cells. As to conditions: Homo sapiens.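 Note: growth inhibition of SW837 cells, determined with a cell viability assay.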
A further assay concerns GAMG. Description: cells. Conditions: Homo sapiens.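 Note: cell growth inhibition measured by a viability assay in the GAMG human cell line.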
A further assay relates to SW756. Description: cells. Conditions: Homo sapiens.
The next assay has as its system NCI-H2030. Description: cells. As to conditions: Homo sapiens.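 Note: growth inhibition of human NCI-H2030 cells, read out by a cell viability assay.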
The test system of another assay is NUGC-3. Nature of the assay: cells. Conditions: Homo sapiens.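 Note: growth inhibition of human NUGC-3 cells, read out with a cell viability assay.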
The next assay concerns MDA-MB-453. Description: cells. Conditions: Homo sapiens.
Another assay deals with SKG-IIIa. Description: cells. Conditions: Homo sapiens.
Another assay deals with KYSE-180. Description: cells. As to conditions: Homo sapiens.
The next assay concerns HN. Description: cells. As to conditions: Homo sapiens.
In another assay the test system is PC-3. Nature of the assay: cells. As to conditions: Homo sapiens.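 Note: cell viability assay measuring growth inhibition of PC-3 cells.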
Another assay relates to SAOS-2. Nature of the assay: cells. Conditions: Homo sapiens.
A further assay relates to BHT-101. Description: cells. As to conditions: Homo sapiens.
In the next assay the test system is HOS. Nature of the assay: cells. As to conditions: Homo sapiens.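 Note: growth inhibition of human HOS cells, read out with a cell viability assay.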
The subject of the next assay is SBC-5. Nature of the assay: cells. As to conditions: Homo sapiens.
A further assay has as its system HTC-C3. Nature of the assay: cells. As to conditions: Homo sapiens.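 Note: inhibition of cell growth, read out with a cell viability assay.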
For another assay, the system named is 5637. Description: cells. As to conditions: Homo sapiens.
The test system of another assay is BCPAP. Description: cells. Conditions: Homo sapiens.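 Note: growth inhibition of BCPAP cells, read out in a cell viability assay.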
A further assay deals with NCI-H1437. Nature of the assay: cells. Conditions: Homo sapiens.
The subject of the next assay is HMV-2 cell line. Nature of the assay: cells. As to conditions: Homo sapiens.
In the next assay the test system is NCI-H727. Description: cells. Conditions: Homo sapiens.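 Note: growth inhibition of human NCI-H727 cells, read out with a cell viability assay.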

Description for 5637: SANGER: Inhibition of human 5637 cell growth in a cell viability assay.
Description for A673: SANGER: Inhibition of human A673 cell growth in a cell viability assay.
Description for AGS: SANGER: Inhibition of human AGS cell growth in a cell viability assay.
Description for BCPAP: SANGER: Inhibition of human BCPAP cell growth in a cell viability assay.
Description for BHT-101: SANGER: Inhibition of human BHT-101 cell growth in a cell viability assay.
Description for CAL-148: SANGER: Inhibition of human CAL-148 cell growth in a cell viability assay.
Description for Detroit 562: SANGER: Inhibition of human Detroit562 cell growth in a cell viability assay.
Description for EB2: SANGER: Inhibition of human EB2 cell growth in a cell viability assay.
Description for G-401: SANGER: Inhibition of human G-401 cell growth in a cell viability assay.
Description for GAMG: SANGER: Inhibition of human GAMG cell growth in a cell viability assay.
Description for HMV-2 cell line: SANGER: Inhibition of human HMV-II cell growth in a cell viability assay.
Description for HN: SANGER: Inhibition of human HN cell growth in a cell viability assay.
Description for HOS: SANGER: Inhibition of human HOS cell growth in a cell viability assay.
Description for HTC-C3: SANGER: Inhibition of human HTC-C3 cell growth in a cell viability assay.
Description for IGROV-1: SANGER: Inhibition of human IGROV-1 cell growth in a cell viability assay.
Description for IST-SL2: SANGER: Inhibition of human IST-SL2 cell growth in a cell viability assay.
Description for JEG-3: SANGER: Inhibition of human JEG-3 cell growth in a cell viability assay.
Description for JIYOYE: SANGER: Inhibition of human JiyoyeP-2003 cell growth in a cell viability assay.
Description for KP-4: SANGER: Inhibition of human KP-4 cell growth in a cell viability assay.
Description for KYSE-180: SANGER: Inhibition of human KYSE-180 cell growth in a cell viability assay.
Description for MC-CAR: SANGER: Inhibition of human MC-CAR cell growth in a cell viability assay.
Description for MDA-MB-453: SANGER: Inhibition of human MDA-MB-453 cell growth in a cell viability assay.
Description for MFE-280: SANGER: Inhibition of human MFE-280 cell growth in a cell viability assay.
Description for MHH-CALL-2: SANGER: Inhibition of human MHH-CALL-2 cell growth in a cell viability assay.
Description for MHH-ES-1: SANGER: Inhibition of human MHH-ES-1 cell growth in a cell viability assay.
Description for MKN-28: SANGER: Inhibition of human MKN28 cell growth in a cell viability assay.
Description for MONO-MAC-6: SANGER: Inhibition of human MONO-MAC-6 cell growth in a cell viability assay.
Description for MRK-nu-1: SANGER: Inhibition of human MRK-nu-1 cell growth in a cell viability assay.
Description for NCI-H1417: SANGER: Inhibition of human NCI-H1417 cell growth in a cell viability assay.
Description for NCI-H1437: SANGER: Inhibition of human NCI-H1437 cell growth in a cell viability assay.
Description for NCI-H1522: SANGER: Inhibition of human NCI-H1522 cell growth in a cell viability assay.
Description for NCI-H1793: SANGER: Inhibition of human NCI-H1793 cell growth in a cell viability assay.
Description for NCI-H187: SANGER: Inhibition of human NCI-H187 cell growth in a cell viability assay.
Description for NCI-H2030: SANGER: Inhibition of human NCI-H2030 cell growth in a cell viability assay.
Description for NCI-H2081: SANGER: Inhibition of human NCI-H2081 cell growth in a cell viability assay.
Description for NCI-H719: SANGER: Inhibition of human NCI-H719 cell growth in a cell viability assay.
Description for NCI-H727: SANGER: Inhibition of human NCI-H727 cell growth in a cell viability assay.
Description for NUGC-3: SANGER: Inhibition of human NUGC-3 cell growth in a cell viability assay.
Description for PC-3: SANGER: Inhibition of human PC-3 cell growth in a cell viability assay.
Description for Raji: SANGER: Inhibition of human Raji cell growth in a cell viability assay.
Description for SAOS-2: SANGER: Inhibition of human Saos-2 cell growth in a cell viability assay.
Description for SBC-5: SANGER: Inhibition of human SBC-5 cell growth in a cell viability assay.
Description for SCC-25: SANGER: Inhibition of human SCC-25 cell growth in a cell viability assay.
Description for SKG-IIIa: SANGER: Inhibition of human SKG-IIIa cell growth in a cell viability assay.
Description for SR: SANGER: Inhibition of human SR cell growth in a cell viability assay.
Description for SW1463: SANGER: Inhibition of human SW1463 cell growth in a cell viability assay.
Description for SW1573: SANGER: Inhibition of human SW1573 cell growth in a cell viability assay.
Description for SW756: SANGER: Inhibition of human SW756 cell growth in a cell viability assay.
Description for SW837: SANGER: Inhibition of human SW837 cell growth in a cell viability assay.
Description for T-24: SANGER: Inhibition of human T-24 cell growth in a cell viability assay.
Description for TE-15: SANGER: Inhibition of human TE-15 cell growth in a cell viability assay.
Description for VM-CUB-1: SANGER: Inhibition of human VM-CUB-1 cell growth in a cell viability assay.
Description for YT: SANGER: Inhibition of human YT cell growth in a cell viability assay.

On to `CCNc1cc(N[C@H]2CC[C@@H](O)CC2)nc(Nc2ccc3c(ccn3Cc3ccccc3)c2)n1`, for which the negative logarithm of the IC50 (pIC50) was < 5.29 with CAL-148; 5.34 with IST-SL2; 5.29 in the assay with TE-15; < 5.29 in the assay on NCI-H1522; 5.51 in the assay with MRK-nu-1; < 5.29 in the assay on EB2. Besides, the negative-log IC50 (pIC50) with MONO-MAC-6, with JIYOYE, with MHH-CALL-2, with MC-CAR, in the assay with SR and in the assay with Raji was < 5.29 each time. The pIC50 in the assay with NCI-H1417, with NCCIT, in the assay with NCI-H719, in the assay on NCI-H187, with NCI-H2081 and with YT was < 5.29 in each case.
As for `CCn1c(-c2nonc2N)nc2cnc(Oc3cccc(NC(=O)c4ccc(OCCN5CCOCC5)cc4)c3)cc21` [GSK-269962A], the negative logarithm of the IC50 (pIC50) in the assay on CAL-148 was < 5.60; with IST-SL2 it was < 5.60; in the assay on TE-15, < 5.60; in the assay with NCI-H1522, < 5.60; in the assay with MRK-nu-1, 6.24; with EB2 it was < 5.60. Besides, the pIC50 with MONO-MAC-6 is < 5.60; in the assay on JIYOYE, < 5.60; with MHH-CALL-2, < 5.60; in the assay with MC-CAR, < 5.60; with SR, > 8.01; in the assay on Raji it was < 5.60. In addition, the pIC50 in the assay with NCI-H1417, in the assay on NCCIT, in the assay on NCI-H719, in the assay with NCI-H187, in the assay on NCI-H2081 and in the assay with YT was < 5.60 throughout.
As for `COc1cc(C)c(Sc2cnc(NC(=O)c3ccc(CNC(C)C(C)(C)C)cc3)s2)cc1C(=O)N1CCN(C(C)=O)CC1` (stereo not drawn), the pIC50 was < 4.99 in the assay with CAL-148; < 4.99 in the assay with IST-SL2; < 4.99 in the assay on TE-15; < 4.99 in the assay with NCI-H1522; 5.08 in the assay on MRK-nu-1; < 4.99 in the assay with EB2. Moreover, the negative logarithm of the IC50 (pIC50) was 5.18 in the assay with MONO-MAC-6; < 4.99 with JIYOYE; < 4.99 with MHH-CALL-2; < 4.99 in the assay with MC-CAR; < 4.99 in the assay with SR; < 4.99 in the assay on Raji. The pIC50 in the assay on NCI-H1417, in the assay on NCCIT, in the assay with NCI-H719, in the assay on NCI-H187, in the assay on NCI-H2081 and in the assay with YT was < 4.99 throughout.
On to `Cc1nc(Nc2ncc(C(=O)Nc3c(C)cccc3Cl)s2)cc(N2CCN(CCO)CC2)n1` [DASATINIB], for which the pIC50 in the assay on CAL-148 was < 5.89; with IST-SL2, 6.30; in the assay on TE-15 it was 8.23; with NCI-H1522 it was < 5.89; in the assay on MRK-nu-1 it was < 5.89; with EB2 it was < 5.89. Besides, the pIC50 in the assay on MONO-MAC-6, with JIYOYE, with MHH-CALL-2, with MC-CAR, in the assay on SR and with Raji was < 5.89 in each case. The pIC50 in the assay with NCI-H1417, in the assay with NCCIT, with NCI-H719, with NCI-H187, in the assay with NCI-H2081 and in the assay on YT was < 5.89 throughout.
For the compound `CC[C@@]1(O)C(=O)OCc2c1cc1n(c2=O)Cc2cc3ccccc3nc2-1` [CAMPTOTHECIN], the negative logarithm of the IC50 (pIC50) is 9.89 in the assay on MHH-ES-1; 7.79 with AGS; 7.72 in the assay on G-401; 7.25 with SCC-25; 8.63 with SW1573; 7.29 in the assay on SW1463. Further, the pIC50 in the assay with JEG-3 is 7.88; in the assay with MKN-28, 7.29; in the assay on T-24 it was 8.79; in the assay with FTC-133, 8.34; in the assay on Detroit 562 it was 7.87; with VM-CUB-1, 8.66. For the same compound, the pIC50 in the assay on IGROV-1 is 7.44; in the assay with A673, 9.09; with NCI-H1793, 7.57; in the assay on MFE-280, 7.67; in the assay with KP-4 it was 8.50; in the assay with SW837, 7.31. The pIC50 in the assay with GAMG was 8.82; in the assay with SW756, 8.38; with NCI-H2030, 7.31; in the assay on NUGC-3, 8.50; in the assay with MDA-MB-453, 8.16; in the assay with SKG-IIIa, 8.34. Moreover, the pIC50 was 7.88 in the assay on KYSE-180; 8.85 with HN; 8.01 in the assay with PC-3; 7.75 with SAOS-2; 8.74 in the assay with BHT-101; 8.85 in the assay on HOS. Besides, the pIC50 was 7.49 in the assay with SBC-5; 7.50 in the assay on HTC-C3; 8.38 in the assay with 5637; 8.52 in the assay with BCPAP; 7.46 with NCI-H1437; 8.05 with HMV-2 cell line. The negative-log IC50 (pIC50) with NCI-H727 was < 7.00.
Take `Cc1n[nH]c2ccc(-c3cncc(OC[C@@H](N)Cc4c[nH]c5ccccc45)c3)cc12` [A-443654]: the pIC50 in the assay with CAL-148 was 7.05; in the assay on IST-SL2, 6.71; in the assay on TE-15, 7.23; in the assay on NCI-H1522, 6.33; in the assay on MRK-nu-1, 6.98; in the assay on EB2, < 5.99. In addition, the pIC50 with MONO-MAC-6 is 7.11; with JIYOYE, 6.72; in the assay on MHH-CALL-2, < 5.99; in the assay with MC-CAR it was < 5.99; in the assay on SR, 6.74; in the assay with Raji, 6.42. Further, the pIC50 with NCI-H1417 is 6.23; in the assay on NCCIT, 6.63; in the assay on NCI-H719, < 5.99; in the assay on NCI-H187 it was 6.33; in the assay on NCI-H2081, < 5.99; in the assay on YT, < 5.99.
Take `Cc1ccc(NC(=O)c2cccc(C(C)(C)C#N)c2)cc1Nc1ccc2ncn(C)c(=O)c2c1`: the pIC50 in the assay with CAL-148, with IST-SL2, in the assay with TE-15, with NCI-H1522, with MRK-nu-1 and in the assay on EB2 was < 5.40 throughout. Besides, the pIC50 in the assay on MONO-MAC-6, in the assay with JIYOYE, in the assay with MHH-CALL-2, with MC-CAR, in the assay with SR and in the assay with Raji was < 5.40 each time. The negative logarithm of the IC50 (pIC50) with NCI-H1417, in the assay on NCCIT, in the assay with NCI-H719, in the assay with NCI-H187, with NCI-H2081 and in the assay with YT was < 5.40 each time.
As to `Cc1[nH]c(/C=C2\C(=O)Nc3ccc(S(=O)(=O)Cc4c(Cl)cccc4Cl)cc32)c(C)c1C(=O)N1CCC[C@@H]1CN1CCCC1` [PHA-665752], the pIC50 in the assay with CAL-148, in the assay with IST-SL2, in the assay on TE-15, in the assay with NCI-H1522, in the assay on MRK-nu-1 and in the assay on EB2 was < 5.70 each time. Besides, the pIC50 with MONO-MAC-6, in the assay with JIYOYE, in the assay with MHH-CALL-2, with MC-CAR, in the assay with SR and in the assay on Raji was < 5.70 throughout. For the same compound, the negative logarithm of the IC50 (pIC50) in the assay with NCI-H1417, in the assay on NCCIT, in the assay on NCI-H719, in the assay on NCI-H187, in the assay on NCI-H2081 and in the assay on YT was < 5.70 throughout.

A word on the pIC50: it is the negative decadic logarithm of the IC50, by convention in mol/L. A lower pIC50 goes with a high IC50.
